This note sets out measurements from PubChem BioAssay (NCI).

Some test systems named below: SNB-75 CNS; NCI-H522 lung; U251 CNS; M14 melanoma; UACC-257 melanoma; SNB-19 CNS; SK-MEL-5 melanoma; A549 NSCLC; NCI/ADR-RES ovarian; BT-549 breast.
Common to all, as to experiment: NCI-60 cell line screen, 48 h

In brackets after ≈: the same amount, converted by molar mass.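 Five concentrations, 48 hours, 96-well plates. At the GI50, growth is halved. Definition used: TGI = concentration required for complete inhibition of growth.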 Some results are limits rather than exact numbers.

As for `O=C1CCCCC2N(C(c3ccccc3)c3ccccc3)CC[C@@]12c1ccccc1` (mixture of isomers), the TGI in the test on SNB-75 CNS, in the test on NCI-H522 lung, in the test on U251 CNS, with M14 melanoma, with UACC-257 melanoma and in the test on SNB-19 CNS was more than 10 µM in each case. Further, the TGI in the test with SK-MEL-5 melanoma and with A549 NSCLC was more than 10 µM each time.

`C=C(C)C(=O)OC1CCC2(C)C(CCC3C2CCC2(C)C(c4ccc(=O)oc4)CC4OC432)C1` (stereo not given): the TGI with SNB-75 CNS stood at 36.6 µM; in the test with NCI-H522 lung, 8.78 µM; in the test with U251 CNS, 30.3 µM; in the test with NCI/ADR-RES ovarian, 26 µM; in the test on UACC-257 melanoma, 17.2 µM; with SNB-19 CNS, 72.5 µM. For the same molecule, the TGI with SK-MEL-5 melanoma is 19.1 µM; in the test on A549 NSCLC, 25.4 µM.

As to `Cc1cc(O)c(C(C)(C)C)cc1Sc1cc(C(C)(C)C)c(O)cc1C`, the GI50 with SNB-75 CNS is 2.99 µM; in the test with NCI-H522 lung, 2.73 µM; with U251 CNS it was 1.99 µM; in the test on NCI/ADR-RES ovarian, 2.78 µM; with UACC-257 melanoma it was 2.28 µM; with SNB-19 CNS, 3.72 µM. Also, the GI50 in the test with SK-MEL-5 melanoma is 1.58 µM; in the test with A549 NSCLC, 3.1 µM. For the same molecule, the TGI in the test on SNB-75 CNS was found to be 14.5 µM; in the test on NCI-H522 lung it was 5.62 µM; in the test on U251 CNS, 4.22 µM; in the test with NCI/ADR-RES ovarian it was 7.58 µM; in the test on UACC-257 melanoma it was 6.89 µM; with SNB-19 CNS it was 13 µM. Further, the TGI was found to be 3.02 µM with SK-MEL-5 melanoma and 10.3 µM in the test on A549 NSCLC.

With `N#Cc1c(Cl)c2cc([N+](=O)[O-])ccc2n2c1nc1ccccc12`, the TGI with SNB-75 CNS is 24.6 µM; in the test on NCI-H522 lung, 4.71 µM; in the test with U251 CNS it was more than 100 µM; in the test on NCI/ADR-RES ovarian, 28 µM; with M14 melanoma, 4.41 µM; in the test on UACC-257 melanoma, 56 µM. Moreover, the TGI is 34.4 µM in the test on BT-549 breast, 20.3 µM with SNB-19 CNS, 44.4 µM with SK-MEL-5 melanoma and more than 100 µM in the test on A549 NSCLC.

For the molecule `CCOC(=O)CN=C1NNS(=O)(=O)c2ccccc21`, the TGI in the test with SNB-75 CNS, in the test with NCI-H522 lung, with U251 CNS, in the test with NCI/ADR-RES ovarian, in the test on M14 melanoma and with UACC-257 melanoma was more than 100 µM throughout. Further, the TGI in the test on BT-549 breast, with SNB-19 CNS, with SK-MEL-5 melanoma and in the test with A549 NSCLC was more than 100 µM in each case.

As for `Clc1ccccc1/C=C/c1cscn1`, the TGI in the test with SNB-75 CNS, with NCI-H522 lung, in the test with U251 CNS, in the test with M14 melanoma, with UACC-257 melanoma and in the test on SNB-19 CNS was more than 100 µM each time.

`NCCCCC(N)C(=O)NCCNc1ccc(NCCNC(=O)C(N)CCCCN)c2c1C(=O)c1ccccc1C2=O` (stereo not given): the TGI with SNB-75 CNS, in the test with NCI-H522 lung, in the test with U251 CNS, in the test with NCI/ADR-RES ovarian, in the test with M14 melanoma and with UACC-257 melanoma was more than 100 µM throughout. Moreover, the TGI is 20.1 µM with BT-549 breast, more than 100 µM in the test with SNB-19 CNS, more than 100 µM with SK-MEL-5 melanoma and more than 100 µM in the test on A549 NSCLC.

As to `O=C(O)Cc1cc(O)c(CC(=O)O)cc1O`, the TGI in the test with NCI-H522 lung, with U251 CNS, in the test with NCI/ADR-RES ovarian, in the test with M14 melanoma, in the test with UACC-257 melanoma and in the test with BT-549 breast was more than 100 µM throughout. Further, the TGI in the test with SNB-19 CNS, in the test with SK-MEL-5 melanoma and in the test on A549 NSCLC was more than 100 µM throughout.

Regarding `CCOC(=O)C(O)(NC(=O)c1ccc(F)cc1)C(F)(F)F` (stereo not given), the TGI in the test with SNB-75 CNS, in the test on NCI-H522 lung, with U251 CNS, with NCI/ADR-RES ovarian, in the test on M14 melanoma and in the test on UACC-257 melanoma was more than 100 µM in each case. Also, the TGI with BT-549 breast, in the test on SNB-19 CNS, in the test on SK-MEL-5 melanoma and in the test on A549 NSCLC was more than 100 µM throughout.

For the molecule `O=C1NN(C2=NNC3(C(=O)N2)c2ccccc2-c2ccccc23)C(c2ccccc2)=N/C1=C/c1ccc(O)cc1`, the GI50 was 57.4 mg/L in the test on SNB-75 CNS; 104 mg/L in the test on U251 CNS; 50.9 mg/L in the test with NCI/ADR-RES ovarian; 57.6 mg/L (≈ 109 µM) in the test on M14 melanoma; 113 mg/L in the test with UACC-257 melanoma; more than 150 mg/L in the test on BT-549 breast. The figures for the GI50 in the test on SNB-19 CNS, in the test with SK-MEL-5 melanoma and in the test with A549 NSCLC were 94.9 mg/L, 39.2 mg/L and 74.7 mg/L, respectively. For the same molecule, the TGI in the test with SNB-75 CNS, in the test on U251 CNS, in the test with NCI/ADR-RES ovarian, with M14 melanoma, in the test on UACC-257 melanoma and with BT-549 breast was more than 150 mg/L each time. For the same molecule, the TGI in the test on SNB-19 CNS, with SK-MEL-5 melanoma and in the test on A549 NSCLC was more than 150 mg/L throughout.

With `C=CC1(C)CCC2=C(CCC3C(C)(C(=O)OC)CCCC23C)C1=O` (stereo not given), the TGI in the test with NCI-H522 lung is 29.3 µM; with U251 CNS, 29 µM; in the test on M14 melanoma, 38.7 µM; with UACC-257 melanoma it was 55.9 µM; in the test on SNB-19 CNS, more than 100 µM; with SK-MEL-5 melanoma, 30.3 µM.

Turning to `Cn1c(=O)c2[nH]c(CCCCC(=O)O)nc2n(C)c1=O`, the TGI with SNB-75 CNS, in the test on NCI-H522 lung, in the test on U251 CNS, in the test with NCI/ADR-RES ovarian, in the test on M14 melanoma and in the test on UACC-257 melanoma was more than 100 µM throughout. Moreover, the TGI in the test on BT-549 breast, with SNB-19 CNS, in the test on SK-MEL-5 melanoma and in the test with A549 NSCLC was more than 100 µM throughout.

With `O=C(N/N=C\c1cccc(O)c1)c1ccncc1`, the TGI in the test on SNB-75 CNS, in the test with NCI-H522 lung, with U251 CNS, in the test on NCI/ADR-RES ovarian, in the test with M14 melanoma and in the test with UACC-257 melanoma was more than 100 µM in each case. Further, the TGI with BT-549 breast, in the test with SNB-19 CNS and in the test on A549 NSCLC was more than 100 µM throughout.

For the molecule `Cc1nc2ccccc2n1C(=O)c1c(F)c(F)c(F)c(F)c1F`, the TGI was determined as 90.1 µM in the test with SNB-75 CNS; 10.9 µM in the test on NCI-H522 lung; 52.6 µM in the test on U251 CNS; 42.4 µM with NCI/ADR-RES ovarian; 25.9 µM in the test with M14 melanoma; 39.1 µM in the test on UACC-257 melanoma. In addition, the TGI in the test on BT-549 breast is 39.5 µM; in the test with SNB-19 CNS, more than 100 µM; in the test on SK-MEL-5 melanoma, 26.9 µM; in the test on A549 NSCLC, more than 100 µM.
